Legend:
[1] = tested on: NCI-H292; test: Cytotoxicity evaluated against H292 tumor cell lines; Significant activity; type: functional, cell-based; conditions: Homo sapiens
[2] = tested on: WI-38; test: Cytotoxicity was evaluated against WI38 tumor cell lines; Significant activity; type: functional, cell-based; conditions: Homo sapiens
[3] = tested on: L1210; test: Cytotoxicity evaluated against L1210 tumor cell lines; Significant activity; type: functional, cell-based; conditions: Mus musculus
[4] = tested on: MCF7; test: Cytotoxicity evaluated against MCF-7 tumor cell lines; Significant activity; type: functional, cell-based; conditions: Homo sapiens
[5] = tested on: NIH3T3; test: Cytotoxicity evaluated against NIH3T3 tumor cell lines; Significant activity; type: functional, cell-based; conditions: Mus musculus
[6] = tested on: CCRF-CEM; test: Cytotoxicity evaluated against CEM tumor cell lines; Significant activity; type: functional, cell-based; conditions: Homo sapiens
[7] = tested on: B16; test: Cytotoxicity was evaluated against B16 tumor cell lines; Significant activity; type: functional, cell-based; conditions: Mus musculus
[8] = tested on: HL-60; test: Cytotoxicity evaluated against HL-60 tumor cell lines; Significant activity; type: functional, cell-based; conditions: Homo sapiens
[9] = tested on: NCI-H596; test: Cytotoxicity evaluated against H596 tumor cell lines; Significant activity; type: functional, cell-based; conditions: Homo sapiens
[10] = tested on: MOLT-4; test: Cytotoxicity was evaluated against Molt-4 tumor cell lines; type: functional, cell-based; conditions: Homo sapiens
[11] = tested on: Jurkat; test: In vitro test for antitumor activity against human Jurkat cell line using a formazan dye (MTT) conversion assay.; type: functional, cell-based
[12] = tested on: A549; test: Cytotoxicity evaluated against A549 tumor cell lines; significant activity; type: functional, cell-based; conditions: Homo sapiens
[13] = tested on: WIL2; test: Cytotoxicity evaluated against WIL2 tumor cell lines; Significant activity; type: functional, cell-based; conditions: Homo sapiens
[14] = tested on: K562; test: Cytotoxicity evaluated against K562 tumor cell lines; Significant activity; type: functional, cell-based; conditions: Homo sapiens
[15] = tested on: WI-38; test: Cytotoxicity evaluated against WI38 tumor cell lines; Significant activity; type: functional, cell-based; conditions: Homo sapiens
[16] = tested on: Tumor cell line; test: In vivo testing against tumor cells that were placed in the polyvinylidene fluoride (PVDF) hollow fibers of capsules and then implanted in to mice intraperitoneally or subcutaneously; type: functional, Mus musculus

Row | IC50 [11] [nM] | SMILES | Cytotoxicity [1] | Cytotoxicity [2] | Cytotoxicity [3] | Cytotoxicity [4] | Cytotoxicity [5] | Cytotoxicity [6] | Cytotoxicity [7] | Cytotoxicity [8] | Cytotoxicity [9] | Cytotoxicity [10] | Cytotoxicity [12] | Cytotoxicity [13] | Cytotoxicity [14] | Cytotoxicity [15] | IP+SC score [16]
1 | 9300 | COc1cc2c(c([N+](=O)[O-])c1O)C/C(=C\c1cc(C)c(O)c(C)c1)C2=O | Significant activity | Significant activity | Significant activity | Significant activity | Significant activity | Significant activity | Significant activity | Significant activity | Significant activity | Significant activity | Significant activity | Significant activity | Significant activity | – | –
2 | 80 | COc1cc2c(cc1OC)C(=O)/C(=C/c1cc(C)cc(C)c1)C2 | Significant activity | – | Significant activity | Significant activity | Significant activity | Significant activity | Significant activity | Significant activity | Significant activity | Significant activity | Significant activity | Significant activity | Significant activity | Significant activity | <20
3 | 5000 | COc1cccc(/C=C2\CCc3cc(OC)c(OC)cc3C2=O)c1 | Significant activity | Significant activity | Significant activity | Significant activity | Significant activity | Significant activity | Significant activity | Significant activity | Significant activity | Significant activity | Significant activity | Significant activity | Significant activity | – | –
4 | 3000 | COc1cc(/C=C2\Cc3cc(OC)c(OC)cc3C2=O)cc(OC)c1 | Significant activity | – | Significant activity | Significant activity | Significant activity | Significant activity | Significant activity | Significant activity | Significant activity | Significant activity | Significant activity | Significant activity | Significant activity | Significant activity | <20
5 | 2000 | COc1cc2c(cc1OC)C(=O)/C(=C/c1cc(Cl)cc(Cl)c1)C2 | Significant activity | – | Significant activity | Significant activity | Significant activity | Significant activity | Significant activity | Significant activity | Significant activity | Significant activity | Significant activity | Significant activity | Significant activity | Significant activity | <20

From ChEMBL document CHEMBL1133412, “Rational design, synthesis and structure-activity relationships of antitumor (E)-2-benzylidene-1-tetralones and (E)-2-benzylidene-1-indanones” (Bioorg Med Chem Lett, 2000)
